In one series the test system is HT1080-(CAG)850 cells. As to the kind of experiment: cellular distribution by confocal microscopy. In kind it is cell-based, human. To be noted: 50-μM NBD-labeled NA, 48 hr. The method, then: Scale bar represents 20 μm. […] The cell viability was estimated with WST-1 assays. Values represent the means of three independent measures±SD. […] Error bars indicate the SD of triplicate experiments. […] The dashed line indicates the peak CAG size. Allele lengths are grouped in bins spanning 10 repeats. More than 230 alleles were sized per group.
HT1080-(CAG)850 cells were incubated with 50-μM NBD-labeled NA for 48 hr and Cell Light Plasma Membrane-RFP, BacMam 2.0 (Life Technologies, Carlsbad, Calif.), then fixed for 15 min at RT with 4% paraformaldehyde and washed 2 times for 10 min in phosphate buffered saline (PBS). Cells were mounted with Vectashield hard-set mounting media that contains DAPI (Vector Laboratories, Burlingame, Calif.). Fluorescence images were obtained using Olympus FV1000D confocal laser scanning microscope (Olympus, Tokyo, Japan).

The next series has as its system CAG expansions. Particulars: by unknown processes; cited from earlier work.

The structures appear in SMILES notation.

Regarding `Cc1ccc2ccc(NC(=O)CCN(CCCNC(=O)CCCNC(=O)CCCCCNc3ccc([N+](=O)[O-])c4nonc34)CCC(=O)NCc3ccc4ccc(=O)[nH]c4n3)nc2n1` [NBD-labeled NA, N-(4-((3-((3-((7-methyl-1,8-naphthyridin-2-yl)amino)-3-oxopropyl)(3-oxo-3-(((7-oxo-7,8-dihydro-1,8-naphthyridin-2-yl)methyl)amino)propyl)amino)propyl)amino)-4-oxobutyl)-6-((7-nitrobenzo[c][1,2,5]oxadiazol-4-yl)amino)hexanamide], the cellular distribution result with HT1080-(CAG)850 cells is “distributed throughout the nuclei and cytoplasm”. For `CC(C)C[C@@H](/C=C/[C@H](Cc1ccccc1)C(=O)N1CCC[C@H]1C(=O)N[C@H](C(=O)N[C@@H](CCCNC(=O)OCc1ccccc1)C(=O)NC1CC(C)(C)N([O])C(C)(C)C1)C(C)C)NC(=O)OC(C)(C)C` [XJB-5-131], the “effect on CAG expansions” value in the series on CAG expansions is given as “mildly suppress CAG expansions rather than induce contractions”.

The record behind these values is patent US11672786B2, “Methods of treating diseases associated with repeat instability” (The Hospital for Sick Children, priority 2016, dated 2023).
